Measurements taken from ChEMBL document CHEMBL4602660, “Kinase-Inhibitory Nucleoside Derivatives from the Pacific Bryozoan Nelliella nelliiformis” (J Nat Prod, 2020).
Activity calls are given as the source filed them. No cut-off for these calls is given here.

Assays:
[1] = test system: HL-60; experiment: Cytotoxicity against human HL60 cells up to 10 uM; assay type: functional, cell-based
[2] = molecular target: Maternal embryonic leucine zipper kinase (Homo sapiens) (UniProt Q14680); experiment: Inhibition of GST tagged human MELK expressed in baculovirus expression system at 10 uM after 1 hr by Z'-LYTE assay relative to control
[3] = molecular target: T1, Glycogen synthase kinase-3 alpha (Homo sapiens, UniProt P49840); experiment: Inhibition of N-Terminal GST tagged human GSK3A expressed in baculovirus expression system at 10 uM after 1 hr by Z'-LYTE assay relative to control
Target sequence in this assay (P49840 2-483 limits assumed): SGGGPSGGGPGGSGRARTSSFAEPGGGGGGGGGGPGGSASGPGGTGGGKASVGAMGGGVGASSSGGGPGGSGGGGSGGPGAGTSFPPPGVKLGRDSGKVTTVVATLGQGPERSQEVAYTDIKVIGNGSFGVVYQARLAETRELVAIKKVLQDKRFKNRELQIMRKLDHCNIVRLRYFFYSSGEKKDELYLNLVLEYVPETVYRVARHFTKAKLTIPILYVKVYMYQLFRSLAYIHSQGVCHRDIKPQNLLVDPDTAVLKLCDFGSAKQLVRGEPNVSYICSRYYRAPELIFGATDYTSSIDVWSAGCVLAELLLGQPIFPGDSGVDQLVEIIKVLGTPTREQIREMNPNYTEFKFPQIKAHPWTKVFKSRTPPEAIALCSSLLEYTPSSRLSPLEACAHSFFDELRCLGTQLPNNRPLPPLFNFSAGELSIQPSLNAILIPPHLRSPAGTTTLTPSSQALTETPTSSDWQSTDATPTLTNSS

[4] = molecular target: T2, Mitogen-activated protein kinase 14 (Homo sapiens, UniProt Q16539); experiment: Inhibition of human MAPK14 expressed in Escherichia coli at 10 uM after 1 hr by Z'-LYTE assay relative to control
[5] = molecular target: Glycogen synthase kinase-3 beta (Homo sapiens) (UniProt P49841); experiment: Inhibition of N-Terminal His tagged human GSK3B expressed in baculovirus expression system at 10 uM after 1 hr by Z'-LYTE assay relative to control
[6] = test system: Staphylococcus aureus; experiment: Antibacterial activity against Staphylococcus aureus up to 100 ug/ml; assay type: functional, organism-based
[7] = molecular target: T3, Ribosomal protein S6 kinase alpha-3 (Homo sapiens, UniProt P51812); experiment: Inhibition of His-tagged recombinant human RSK2 expressed in baculovirus expression system at 10 uM after 1 hr by Z'-LYTE assay relative to control
[8] = molecular target: MAP kinase-activated protein kinase 3 (Homo sapiens) (UniProt Q16644); experiment: Inhibition of His-tagged human MAPKAPK3 expressed in baculovirus expression system at 10 uM after 1 hr by Z'-LYTE assay relative to control
[9] = molecular target: T1, Glycogen synthase kinase-3 alpha; experiment: Inhibition of N-Terminal GST tagged human GSK3A expressed in baculovirus expression system after 1 hr by Z'-LYTE assay
Target sequence in this assay (P49840 whole entry): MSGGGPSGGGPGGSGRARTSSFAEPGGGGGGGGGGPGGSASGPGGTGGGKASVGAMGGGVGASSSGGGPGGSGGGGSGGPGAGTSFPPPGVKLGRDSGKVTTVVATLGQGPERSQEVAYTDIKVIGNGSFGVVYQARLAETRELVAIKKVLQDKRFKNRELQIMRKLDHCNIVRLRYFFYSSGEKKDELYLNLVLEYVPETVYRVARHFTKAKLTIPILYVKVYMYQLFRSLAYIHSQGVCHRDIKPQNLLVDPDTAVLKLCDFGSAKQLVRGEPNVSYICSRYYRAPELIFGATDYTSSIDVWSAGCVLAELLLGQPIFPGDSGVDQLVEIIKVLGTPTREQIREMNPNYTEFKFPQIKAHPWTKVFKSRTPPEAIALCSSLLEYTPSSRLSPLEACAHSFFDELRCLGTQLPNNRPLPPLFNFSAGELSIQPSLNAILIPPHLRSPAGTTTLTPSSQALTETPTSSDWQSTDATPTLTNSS

[10] = test system: Saccharomyces cerevisiae; experiment: Antifungal activity against Saccharomyces cerevisiae; assay type: functional, organism-based
[11] = molecular target: T2, Mitogen-activated protein kinase 14; experiment: Inhibition of human MAPK14 expressed in Escherichia coli after 1 hr by Z'-LYTE assay
[12] = molecular target: T3, Ribosomal protein S6 kinase alpha-3; experiment: Inhibition of His-tagged recombinant human RSK2 expressed in baculovirus expression system after 1 hr by Z'-LYTE assay
[13] = molecular target: MAP kinase-activated protein kinase 2 (Homo sapiens) (UniProt P49137); experiment: Inhibition of His-tagged human MAPKAPK2 expressed in Escherichia coli at 10 uM after 1 hr by Z'-LYTE assay relative to control
Chain of MAP kinase-activated protein kinase 2 (Homo sapiens) (P49137 whole entry, looked up): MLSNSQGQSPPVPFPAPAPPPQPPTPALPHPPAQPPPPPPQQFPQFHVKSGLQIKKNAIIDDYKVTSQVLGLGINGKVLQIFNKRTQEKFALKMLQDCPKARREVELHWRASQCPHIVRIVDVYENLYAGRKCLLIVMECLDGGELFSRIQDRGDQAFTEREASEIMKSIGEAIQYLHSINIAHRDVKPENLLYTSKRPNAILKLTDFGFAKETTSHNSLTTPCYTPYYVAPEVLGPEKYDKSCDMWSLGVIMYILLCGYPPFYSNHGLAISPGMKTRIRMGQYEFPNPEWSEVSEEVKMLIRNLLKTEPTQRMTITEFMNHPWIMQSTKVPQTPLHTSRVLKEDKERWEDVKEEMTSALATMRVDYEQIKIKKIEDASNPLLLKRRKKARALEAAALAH

T3 sequence (P51812 whole entry): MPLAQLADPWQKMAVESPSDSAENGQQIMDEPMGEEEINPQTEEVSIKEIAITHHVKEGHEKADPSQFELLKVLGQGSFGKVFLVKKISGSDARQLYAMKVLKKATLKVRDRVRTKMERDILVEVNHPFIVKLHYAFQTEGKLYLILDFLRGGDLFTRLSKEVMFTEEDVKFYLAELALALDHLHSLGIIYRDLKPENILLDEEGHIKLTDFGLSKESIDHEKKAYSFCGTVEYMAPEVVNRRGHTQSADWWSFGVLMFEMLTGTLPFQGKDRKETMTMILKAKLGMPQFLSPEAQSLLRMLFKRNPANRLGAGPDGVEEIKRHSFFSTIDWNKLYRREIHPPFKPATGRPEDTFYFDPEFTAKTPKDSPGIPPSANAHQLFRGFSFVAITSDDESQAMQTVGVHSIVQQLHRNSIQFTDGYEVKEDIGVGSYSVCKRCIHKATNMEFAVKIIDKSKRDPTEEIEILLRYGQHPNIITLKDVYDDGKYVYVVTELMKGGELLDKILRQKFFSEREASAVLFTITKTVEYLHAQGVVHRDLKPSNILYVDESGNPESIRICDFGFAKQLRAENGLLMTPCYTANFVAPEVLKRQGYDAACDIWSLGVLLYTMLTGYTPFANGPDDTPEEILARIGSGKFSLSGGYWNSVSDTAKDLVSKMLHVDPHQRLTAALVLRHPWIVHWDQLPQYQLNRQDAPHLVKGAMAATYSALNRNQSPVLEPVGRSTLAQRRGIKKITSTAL
Chain of MAP kinase-activated protein kinase 3 (Homo sapiens) (Q16644 whole entry, looked up): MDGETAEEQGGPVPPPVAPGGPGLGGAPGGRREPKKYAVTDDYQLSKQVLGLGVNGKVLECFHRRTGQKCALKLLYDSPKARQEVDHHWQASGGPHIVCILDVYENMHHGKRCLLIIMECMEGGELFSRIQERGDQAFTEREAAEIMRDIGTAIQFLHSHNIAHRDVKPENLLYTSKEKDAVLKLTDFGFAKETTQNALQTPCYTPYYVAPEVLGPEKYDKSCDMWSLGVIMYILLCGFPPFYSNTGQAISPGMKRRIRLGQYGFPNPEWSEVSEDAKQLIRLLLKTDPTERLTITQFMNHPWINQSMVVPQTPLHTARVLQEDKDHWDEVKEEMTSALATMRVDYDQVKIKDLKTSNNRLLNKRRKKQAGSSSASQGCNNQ
Chain of Glycogen synthase kinase-3 beta (Homo sapiens) (P49841 whole entry, looked up): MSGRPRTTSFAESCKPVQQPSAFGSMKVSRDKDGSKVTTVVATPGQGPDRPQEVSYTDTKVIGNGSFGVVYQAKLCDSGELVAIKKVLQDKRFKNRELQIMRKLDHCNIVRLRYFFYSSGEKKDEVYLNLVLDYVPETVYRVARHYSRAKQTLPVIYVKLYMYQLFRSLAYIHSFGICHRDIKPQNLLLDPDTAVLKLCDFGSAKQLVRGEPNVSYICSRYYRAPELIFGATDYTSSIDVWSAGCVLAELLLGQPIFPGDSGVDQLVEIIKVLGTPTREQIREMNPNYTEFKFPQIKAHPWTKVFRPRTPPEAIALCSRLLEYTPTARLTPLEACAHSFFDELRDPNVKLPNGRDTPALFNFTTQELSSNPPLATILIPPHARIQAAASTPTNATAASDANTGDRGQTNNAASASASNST
Chain of Maternal embryonic leucine zipper kinase (Homo sapiens) (Q14680 whole entry, looked up): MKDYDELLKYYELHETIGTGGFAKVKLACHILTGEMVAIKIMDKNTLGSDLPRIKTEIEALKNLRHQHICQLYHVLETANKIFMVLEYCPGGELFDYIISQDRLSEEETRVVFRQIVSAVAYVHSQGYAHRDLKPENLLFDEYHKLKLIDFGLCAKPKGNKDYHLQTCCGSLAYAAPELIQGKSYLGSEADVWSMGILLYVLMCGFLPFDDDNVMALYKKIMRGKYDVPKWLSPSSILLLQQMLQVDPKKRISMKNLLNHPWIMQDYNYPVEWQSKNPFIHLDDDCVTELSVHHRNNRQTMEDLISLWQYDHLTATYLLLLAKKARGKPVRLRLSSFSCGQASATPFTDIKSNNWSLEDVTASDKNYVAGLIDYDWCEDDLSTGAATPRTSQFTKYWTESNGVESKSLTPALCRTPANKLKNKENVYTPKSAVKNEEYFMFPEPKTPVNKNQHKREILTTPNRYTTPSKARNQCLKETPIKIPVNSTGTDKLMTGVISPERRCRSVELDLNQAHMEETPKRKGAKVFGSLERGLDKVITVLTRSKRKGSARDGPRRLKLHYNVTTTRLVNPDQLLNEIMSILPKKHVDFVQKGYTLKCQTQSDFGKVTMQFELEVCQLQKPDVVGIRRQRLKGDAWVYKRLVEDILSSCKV
T2 sequence (Q16539 whole entry): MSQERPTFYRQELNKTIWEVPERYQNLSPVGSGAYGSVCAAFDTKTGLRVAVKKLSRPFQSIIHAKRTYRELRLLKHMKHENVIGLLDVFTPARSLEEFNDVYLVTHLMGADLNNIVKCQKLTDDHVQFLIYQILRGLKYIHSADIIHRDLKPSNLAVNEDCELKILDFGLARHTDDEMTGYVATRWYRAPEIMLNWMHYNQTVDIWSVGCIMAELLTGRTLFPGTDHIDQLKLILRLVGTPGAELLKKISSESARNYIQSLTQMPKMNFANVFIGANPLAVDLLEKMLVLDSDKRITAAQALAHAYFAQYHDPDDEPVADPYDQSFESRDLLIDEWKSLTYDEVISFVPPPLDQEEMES

| inhibition [2] [%] | inhibition [3] [%] | inhibition [4] [%] | inhibition [5] [%] | inhibition [7] [%] | inhibition [8] [%] | IC50 [9] [nM] | IC50 [11] [nM] | IC50 [12] [nM] | inhibition [13] [%] | SMILES | Activity [1] | Activity [6] | Activity [10] |
| --- | --- | --- | --- | --- | --- | --- | --- | --- | --- | --- | --- | --- | --- |
| 97 | 94 | 95 | 94 | 102 | 83 | 1110 | 1320 | 230 | 42 | O=C(OC[C@H]1O[C@@H](n2cnc3c(=O)[nH]cnc32)[C@H](O)[C@@H]1O)c1ccc[nH]1 | inactive | inactive | inactive |
| 96 | 98 | 93 | 98 | 96 | 101 | 710 | 950 | 660 | 88 | Nc1nc2c(ncn2[C@@H]2O[C@H](COC(=O)c3ccc[nH]3)[C@@H](O)[C@H]2O)c(=O)[nH]1 | inactive | inactive | inactive |
| 97 | 100 | 95 | 99 | 95 | 100 | 610 | 870 | 640 | 89 | O=C(OC[C@H]1O[C@@H](n2cnc3c(=O)[nH]cnc32)[C@H](O)[C@@H]1O)c1cc[nH]c1 | inactive | inactive | inactive |
| 98 | 101 | 95 | 98 | 94 | 98 | 1000 | 1710 | 970 | 87 | Nc1ncnc2c1ncn2[C@@H]1O[C@H](COC(=O)c2cc[nH]c2)[C@@H](O)[C@H]1O | inactive | inactive | inactive |
| 95 | 99 | 95 | 100 | 96 | 98 | 890 | 1000 | 800 | 95 | Nc1ncnc2c1ncn2[C@@H]1O[C@H](COC(=O)c2ccc[nH]2)[C@@H](O)[C@H]1O | inactive | inactive | inactive |
| 87 | 93 | 84 | 96 | 93 | 99 | 670 | 990 | 680 | 82 | Nc1nc2c(ncn2[C@@H]2O[C@H](COC(=O)c3cc[nH]c3)[C@@H](O)[C@H]2O)c(=O)[nH]1 | inactive | inactive | inactive |
